From PubChem BioAssay (NCI)
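Compound exposure: 48 hours, 5 concentrations, 96-well plates. TGI denotes the concentration required for complete inhibition of growth.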

What was measured:
Assay in all cases: DTP human tumour cell line panel, 48 h
DMS 273 small cell lung = system: DMS 273 small cell lung
SNB-78 CNS = system: SNB-78 CNS
LXFL 529 NSCLC = system: LXFL 529 NSCLC
KM20L2 colon = system: KM20L2 colon
M19-MEL melanoma = system: M19-MEL melanoma
HOP-18 NSCLC = system: HOP-18 NSCLC
DMS 114 small cell lung = system: DMS 114 small cell lung
XF 498 CNS = system: XF 498 CNS
RXF-631 renal = system: RXF-631 renal

**Q.** What does the source list for `CNC(=S)N(C)C(=S)Nn1c(=O)c(C)nn(C)c1=S`?
**A.** TGI (DMS 273 small cell lung): > 100 µM; TGI (SNB-78 CNS): > 100 µM; TGI (LXFL 529 NSCLC): > 100 µM; TGI (KM20L2 colon): > 100 µM; TGI (M19-MEL melanoma): > 100 µM; TGI (HOP-18 NSCLC): > 100 µM; TGI (DMS 114 small cell lung): > 100 µM

**Q.** `CSc1nc2c(nc(C)c(=O)n2C2OCC(OC(C)=O)C(OC(C)=O)C2OC(C)=O)c(=O)[nH]1` (stereo not drawn) was tested. Which TGI (DMS 273 small cell lung) did it give?
**A.** The TGI was > 100 µM.

**Q.** And the TGI (LXFL 529 NSCLC)?
**A.** Its TGI is > 100 µM.

**Q.** What about the TGI (KM20L2 colon) of the same molecule?
**A.** Its TGI is > 100 µM.

**Q.** What about the TGI (XF 498 CNS) of the same molecule?
**A.** The TGI was > 100 µM.

**Q.** And the TGI (M19-MEL melanoma)?
**A.** The TGI was > 100 µM.

**Q.** What about the TGI (DMS 114 small cell lung) of the same molecule?
**A.** Its TGI is > 100 µM.

**Q.** With `COc1ccc(C2S/C(=C\c3ccccc3O)C(=O)N2NC(=O)Cc2ccccc2)cc1` (stereo not drawn) as the molecule, how does the TGI (DMS 273 small cell lung) read?
**A.** Its TGI is > 100 µM.

**Q.** And the TGI (LXFL 529 NSCLC)?
**A.** Its TGI is > 100 µM.

**Q.** And the TGI (M19-MEL melanoma)?
**A.** The TGI was > 100 µM.

**Q.** What about the TGI (HOP-18 NSCLC) of the same molecule?
**A.** Its TGI is > 100 µM.

**Q.** What about the TGI (DMS 114 small cell lung) of the same molecule?
**A.** Its TGI is > 100 µM.

**Q.** What does the source list for `C=C(C=O)[C@@H]1C2OC(=O)C(=C)[C@@H]2CC(O)[C@@]1(C)CC` (stereo partly drawn)?
**A.** TGI (SNB-78 CNS): 24.9 µM; TGI (LXFL 529 NSCLC): 8.23 µM; TGI (KM20L2 colon): 24.9 µM; TGI (M19-MEL melanoma): 14.3 µM; TGI (RXF-631 renal): 37.7 µM; TGI (HOP-18 NSCLC): 41.3 µM; TGI (DMS 114 small cell lung): 36.8 µM

**Q.** With `CC(=O)Nc1ccc(C(=O)NN2C(=O)C(Cl)C2c2ccccc2)cc1` (stereo not drawn) as the molecule, how does the TGI (DMS 273 small cell lung) read?
**A.** Its TGI is > 100 µM.

**Q.** And the TGI (SNB-78 CNS)?
**A.** Its TGI is > 100 µM.

**Q.** And the TGI (LXFL 529 NSCLC)?
**A.** Its TGI is > 100 µM.

**Q.** And the TGI (KM20L2 colon)?
**A.** The TGI was > 100 µM.

**Q.** And the TGI (M19-MEL melanoma)?
**A.** Its TGI is > 100 µM.

**Q.** `COC(=O)C(C(=O)C(=O)Nc1cccc(OC)c1)c1cnc2ccccc2n1` (stereo not drawn) was tested. Which TGI (DMS 273 small cell lung) did it give?
**A.** The TGI was > 100 µM.

**Q.** And the TGI (SNB-78 CNS)?
**A.** Its TGI is > 100 µM.

**Q.** And the TGI (LXFL 529 NSCLC)?
**A.** Its TGI is > 100 µM.

**Q.** And the TGI (KM20L2 colon)?
**A.** The TGI was > 100 µM.

**Q.** What about the TGI (XF 498 CNS) of the same molecule?
**A.** Its TGI is > 100 µM.

**Q.** And the TGI (RXF-631 renal)?
**A.** Its TGI is > 100 µM.

**Q.** And the TGI (HOP-18 NSCLC)?
**A.** The TGI was > 100 µM.

**Q.** And the TGI (DMS 114 small cell lung)?
**A.** Its TGI is > 100 µM.
